Data set [1] is described as follows: Measurement of body temperature increase (rectal body temperature). It is filed as in vivo, rat. Conditions: Crl/SD rats, oral, 1 mg/mL at 10 mL/kg. The procedure: Test Animals: Selection of rats (Crl/SD rats, 7 weeks, male) for this study was based on rectal body temperature measured during the morning of the day of dosing. In addition, animals selected for this study were acclimated to both the rectal measurement procedure and to being handled and dosed to minimize spontaneous, stress-induced, increases in body temperature. The study was conducted in the animal care laboratories where the room temperature and humidity were kept. The rats were free to move and food and water during the study. Each rat was numbered with color line on the tail, housed in each cage and permitted the normal range of movement. Immediately before each body temperature was measured, they transferred to a single cage at each measurement. To reduce stress which affected the body temperature, the rats were covered with towels at the measurement. The thermistor probe was then carefully inserted into the rectum of each rat and left in place until the value on the digital display had stabilized.
Assays: On the day before dosing, rectal body temperatures were measured at 9:00, 10:00, 11:00, 12:30, 13:30, 14:30 and 15:30 to familiarize the animals with the measurement procedure prior to administration of the test or control treatments. The rats were also dosed by oral gavage without vehicle at 12:30 to acclimate and familiarized the animals with the handling and dosing procedure.
On the day of dosing, only rats whose rectal body temperatures were within the range of 37.0° C. to 37.7° C. were selected for this study. Rectal body temperatures were measured at 9:00, 10:00 and 11:00. Rats whose rectal body temperatures were over 37.9° C. at 10:00, and were outside the range of 37.0° C. to 37.7° C. at 11:00 were excluded from the study. The selected rats were divided to several groups based on their rectal body temperatures at 11:00. Rectal body temperatures of the selected rats were measured again at 12:30, and any rats whose rectal body temperature was 38.0° C. or greater were excluded from the study.
Following the group assignment, test compounds or vehicle was administrated to the rats. Each test compound was dissolved in 0.5% methylcellurose and the final concentration of the compound was adjusted to 1 mg/mL. Test compound was orally administrated in a volume 10 mL/kg once. 10 mL/kg of vehicle (0.5% methylcellurose) was administered to the vehicle group. The rectal body temperatures were measured 0.5, 1 and 2 hrs after the administration. The study was conducted in the animal care laboratories where the room temperature and humidity were kept.
Body temperature increase (ΔTb) was calculated from the difference from an average of the vehicle group at each time point.

Data set [2] concerns FCA-induced inflammation of the rat hind paw. Kind of data set: Freund's complete adjuvant (FCA) model of inflammatory pain, reversal of hyperalgesia. It is filed as in vivo. The settings on record: rats. The procedure: Test Animals: Each experiment uses rats weighing between 200-260 g at the start of the experiment. The rats are group-housed and have free access to food and water at all times, except prior to oral administration of a compound of Formula I when food is removed for 16 hours before dosing. A control group acts as a comparison to rats treated with a compound of Formula I. The control group is administered the carrier for the compound of Formula I. The volume of carrier administered to the control group is the same as the volume of carrier and compound of Formula I administered to the test group.
Inflammatory Pain: To assess the actions of the compounds of Formula I on the treatment or prevention of inflammatory pain the Freund's complete adjuvant (“FCA”) model of inflammatory pain is used. […] 24 hour post injection, the animal is assessed for response to noxious mechanical stimuli by determining the PWT, or to noxious thermal stimuli by determining the PWL, as described below. […] Responses to noxious mechanical or thermal stimuli are then determined 1, 3, 5 and 24 hours post administration. […]
Response to Mechanical Stimuli as an Assessment of Mechanical Hyperalgesia: The paw pressure assay can be used to assess mechanical hyperalgesia. For this assay, hind paw withdrawal thresholds (PWT) to a noxious mechanical stimulus are determined using an analgesymeter (Model 7200, commercially available from Ugo Basile of Italy) as described in C. […] PWT is determined once for each rat at each time point and only the affected (ipsilateral) paw is tested.
Response to Thermal Stimuli as an Assessment of Thermal Hyperalgesia: The plantar test can be used to assess thermal hyperalgesia. For this test, hind paw withdrawal latencies (PWL) to a noxious thermal stimulus are determined using a plantar test apparatus (commercially available from Ugo Basile of Italy) following the technique described by K. Hargreaves et al., “A New and Sensitive Method for Measuring Thermal Nociception in Cutaneous Hyperalgesia,” Pain 32(1):77-88 (1988). […] Three latencies are determined at each time point and averaged. […]

Data set [3] deals with human recombinant TRPV1 (Homo sapiens (Human), UniProt Q8NER1). Kind of data set: TRPV1 Capsaicin-Based Assay (Protocol 2, TRPV1/CHO cells, Fluo-4, FLIPR). It is filed as cell-based. Conditions: TRPV1/CHO cells, capsaicin 100 nM final; read-out: IC50 value by the Capsaicin-Based Assay. In short, it runs like this: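 CHO cells stably expressing human TRPV1 were loaded with 3 μM Fluo-4 for 1 h, then given compounds in HBSS/1 mM CaCl2/20 mM HEPES pH 7.4 with 1% DMSO for 2 min before 100 nM capsaicin (final). FLIPR fluorescence recorded over the full course; curves fitted.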
human recombinant TRPV1, sequence (Q8NER1 whole entry): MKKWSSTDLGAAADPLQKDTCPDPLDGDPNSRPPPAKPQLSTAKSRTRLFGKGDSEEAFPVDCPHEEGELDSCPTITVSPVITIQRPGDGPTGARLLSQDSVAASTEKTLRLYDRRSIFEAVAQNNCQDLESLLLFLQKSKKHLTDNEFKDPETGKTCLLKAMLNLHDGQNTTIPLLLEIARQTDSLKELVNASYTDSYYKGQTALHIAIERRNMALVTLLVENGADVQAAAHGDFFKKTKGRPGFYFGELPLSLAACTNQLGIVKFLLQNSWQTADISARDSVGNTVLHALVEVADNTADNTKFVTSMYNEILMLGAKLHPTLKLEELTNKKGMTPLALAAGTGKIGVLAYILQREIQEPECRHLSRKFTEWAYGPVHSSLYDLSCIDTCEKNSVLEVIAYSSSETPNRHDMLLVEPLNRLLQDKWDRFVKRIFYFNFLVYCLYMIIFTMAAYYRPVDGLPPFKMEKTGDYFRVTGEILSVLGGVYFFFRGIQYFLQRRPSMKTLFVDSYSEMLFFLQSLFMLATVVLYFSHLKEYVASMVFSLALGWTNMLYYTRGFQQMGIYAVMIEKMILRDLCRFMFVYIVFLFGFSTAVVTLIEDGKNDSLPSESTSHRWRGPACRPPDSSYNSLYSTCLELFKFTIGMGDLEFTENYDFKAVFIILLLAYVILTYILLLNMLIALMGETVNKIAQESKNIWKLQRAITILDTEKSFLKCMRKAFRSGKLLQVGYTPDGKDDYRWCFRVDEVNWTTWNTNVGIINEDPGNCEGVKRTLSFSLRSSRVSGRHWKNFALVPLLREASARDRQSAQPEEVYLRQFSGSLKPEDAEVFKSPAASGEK

The IC50 is the concentration that inhibits the measured activity by half. Take `Cc1cc(NC(=O)N2CCC(F)(c3ncc(C[C@H](O)CO)cc3F)CC2)ccc1C(F)(F)F` [ACQ, (S)-4-(5-(2,3-dihydroxypropyl)-3-fluoropyridin-2-yl)-4-fluoro-N-(3-methyl-4-(trifluoromethyl)phenyl)piperidine-1-carboxamide]: in data set [1], the Body temperature increase entry is “less than 0.5 °C”. Also, in data set [2], the “Percentage reversal of hyperalgesia, % Reversal (3 mg/Kg, 3 hours post administration)” value came out at 41.7%. The half-inhibitory concentration (IC50) in data set [3] was not above 50 nM.

These data come from patent US8921373B2, “Compounds having TRPV1 antagonistic activity and uses thereof” (Shionogi & Co., Ltd., priority 2010, dated 2014).
